In this assay the target is recombinant eIF4E (Homo sapiens (Human), UniProt P06730). In words: Fluorescence polarization competition assay for eIF4E binding potency. The gist of the method:
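Protein and fluorescent cap-analog probe (EDA-m7GDP-ATTO-550) were mixed first for 5 min, after which serially diluted compound was added to final 75 nM eIF4E, 20 nM probe, 1% DMSO. Reactions equilibrated 30 min at room temperature before polarization was measured.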

The mark [1] stands for this setting: inhibition of eIF4E/EDA-m7GDP-ATTO-550 binding, calculated IC50 values, Table 4B, read-out: IC50.
The mark [2] stands for this setting: fluorescence polarization competition, 75 nM recombinant eIF4E, 20 nM EDA-m7GDP-ATTO-550, IC50 class, read-out: elF4E FP.
The mark [3] stands for this setting: inhibition of eIF4E/EDA-m7GDP-ATTO-550 binding by 50%, Table 4B calculated values, read-out: IC50.

Read-outs that look alike come from different tables or passages of the source.

Chain of recombinant eIF4E (P06730 whole entry): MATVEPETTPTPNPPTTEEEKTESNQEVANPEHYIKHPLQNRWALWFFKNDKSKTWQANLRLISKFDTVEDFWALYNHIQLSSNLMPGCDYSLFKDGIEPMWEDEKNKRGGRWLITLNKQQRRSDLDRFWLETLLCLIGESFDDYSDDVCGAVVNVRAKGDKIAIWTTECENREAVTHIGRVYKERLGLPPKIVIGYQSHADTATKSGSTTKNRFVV

Consider `CCN(c1ncc2nc(C)n(CC#Cc3ccc(Cl)cc3-c3ccnc4c(C(=O)O)csc34)c(=O)c2c1C#N)C1CCN([C@H]2C[C@@H](OC(F)(F)F)C2)CC1` [compound 1775], for which, under setting [1], the IC50 is 32.1 nM.
Consider `Cc1nc2c(C#N)nc(C#N)cc2c(=O)n1CCOc1ccc(Cl)cc1-c1cccc(C(=O)O)c1` [compound 1997], for which the IC50 under setting [1] was 77.5 nM.
In the case of `Cc1nc2cnc(N3CCN(C4CC4)C(C(F)(F)F)C3)c(C#N)c2c(=O)n1CCOc1ccc(Cl)cc1-c1ccnc2c(C(=O)O)csc12` (stereo not shown) [compound 1438], the IC50 under setting [1] is 40.8 nM.
For `Cc1nc2cnc(N3CCN(C)CC3C)c(C#N)c2c(=O)n1CCOc1ccc(Cl)cc1-c1ccnc2c(C(=O)O)csc12` (stereo not shown) [compound 1335], the IC50 under setting [1] is 12.8 nM.
Consider `Cc1nc2c(c(C#N)cc3ccccc32)c(=O)n1CCOc1ccc(Cl)cc1-c1ccnc2c(C(=O)O)csc12` [compound 1946], for which the IC50 under setting [1] was 44.7 nM.
In the case of `O=C(O)c1cccc(-c2cc(Cl)ccc2OCCn2ccc3ncncc3c2=O)c1` [compound 14], the IC50 under setting [2] is above 1000 nM and the IC50 under setting [3] was above 3000 nM.
In the case of `Cc1nc2cc(C#N)cc(C#N)c2c(=O)n1CCOc1ccc(Cl)cc1-c1ccnc2c(C(=O)O)csc12` [compound 212], the IC50 is below 50 nM under setting [2] and 40 nM under setting [3].
For the molecule `Cc1cc(-c2cc(Cl)ccc2OCCn2c(C)nc3cc(Cl)c(Cl)c(C#N)c3c2=O)c2scc(C(=O)O)c2n1` [compound 582], the IC50 was below 50 nM under setting [2] and 12.7 nM under setting [3].
In the case of `Cc1cc(-c2cc(Cl)ccc2OCCn2c(C)nc3cc(C(F)(F)F)c(CN4CCN(C(C)(C)C)CC4)c(C#N)c3c2=O)c2scc(C(=O)O)c2n1` [compound 738], the IC50 was below 50 nM under setting [2] and 19.3 nM under setting [3].
For `Cc1nc2cnc(N3CCC4(CC3)CN(CC(C)(F)F)C4)c(C#N)c2c(=O)n1CC#Cc1ccc(Cl)cc1-c1ccnc2c(C(=O)NS(=O)(=O)C3COC3)csc12` [compound 1411], the IC50 under setting [1] was 17.5 nM.
For the molecule `Cc1cc(-c2cc(Cl)ccc2OCCn2c(C)nc3cc(C(F)(F)F)c(CC4CNC4)c(C#N)c3c2=O)c2scc(C(=O)O)c2n1` [compound 424], the IC50 was below 50 nM under setting [2] and 4.08 nM under setting [3].
For `Cc1cc(-c2cc(Cl)ccc2OCCn2c(C)nc3cc(C(F)(F)F)c(N4CCN(C)CC4)nc3c2=O)c2scc(C(=O)O)c2n1` [compound 676], the IC50 under setting [2] was below 50 nM and the IC50 under setting [3] is 6.22 nM.
Consider `Cc1cc(-c2cc(Cl)ccc2OCCn2c(C)nc3cc4c(c(C#N)c3c2=O)CN(C)C4)c2scc(C(=O)O)c2n1` [compound 712], for which the IC50 is below 50 nM under setting [2] and 19.6 nM under setting [3].
On the same counts, the results for `Cc1cc(-c2cc(Cl)ccc2OCCn2c(C)nc3cc(Cl)c(N4CCCC4(C)C)c(C#N)c3c2=O)c2scc(C(=O)O)c2n1` [compound 920] are below 50 nM and 5.76 nM.
Take `Cc1nc2cnc(N(C)[C@H]3CC[C@H](CN(C)CC(C)(F)F)CC3)c(C#N)c2c(=O)n1CC#Cc1ccc(Cl)cc1-c1ccnc2c(C(=O)O)csc12` [compound 1583]: the IC50 under setting [1] is 58.2 nM.
`Cc1nc2cc(C(F)(F)F)c(N3CCN(C)CC3)cc2c(=O)n1CCOc1ccc(Cl)cc1-c1ccnc2c(C(=O)O)csc12` [compound 1230]: the IC50 is below 50 nM under setting [2] and 10.3 nM under setting [1].
Consider `Cc1nc2cc(C(F)(F)F)c(CN(C)C)cc2c(=O)n1CCOc1ccc(Cl)cc1-c1ccnc2c(C(=O)O)csc12` [compound 408], for which the IC50 is, setting by setting: under setting [2], below 50 nM; under setting [3], 31.1 nM.
Take `Cc1cc(-c2cc(Cl)ccc2OCCn2c(C)nc3cc(C(F)(F)F)c(-c4ccncn4)nc3c2=O)c2scc(C(=O)O)c2n1` [compound 767]: the IC50 reads like this: under setting [2], below 50 nM; under setting [3], 7.51 nM.
With `Cc1sc2c(-c3cc(Cl)ccc3C#CCn3c(C)nc4cc(C(F)(F)F)c(N5CCN(C)CC5)c(C#N)c4c3=O)ccnc2c1C(=O)O` [compound 1271], under setting [1], the IC50 is 13.1 nM.
Turning to `Cc1cc(-c2cc(Cl)ccc2OCCn2c(C)nc3cnc(N(C)C)c(C#N)c3c2=O)c2scc(C(=O)O)c2n1` [compound 791], the IC50 under setting [2] is below 50 nM and the IC50 under setting [3] was 3.59 nM.
Consider `Cc1nc2cnc(N(C)C3CCN(C4(CF)CC4)CC3)c(C#N)c2c(=O)n1CC#Cc1ccc(Cl)cc1-c1ccnc2c(C(=O)O)csc12` [compound 1529], for which the IC50 under setting [1] was 20.1 nM.
On to `Cc1cc(-c2cc(Cl)ccc2OCCn2c(C)nc3cc(C(F)(F)F)c(Oc4cccnc4)c(C#N)c3c2=O)c2scc(C(=O)O)c2n1` [compound 1035], for which, under setting [2], the IC50 was below 50 nM.
With `Cc1nc2c(F)ccc(C#N)c2c(=O)n1CCOc1ccc(Cl)cc1-c1ccnc2c(C(=O)O)csc12` [compound 1373], the IC50 under setting [1] is 26.7 nM.
With `Cc1nc(N2CCN(CCF)CC2)c(C#N)c2c(=O)n(CCOc3ccc(Cl)cc3-c3ccnc4c(C(=O)O)csc34)c(C)nc12` [compound 1624], under setting [1], the IC50 was 4.17 nM.
With `Cc1nc2cc(C(F)(F)F)cc(C#N)c2c(=O)n1CCOc1ccc(Cl)cc1-c1ccnc2c(C(C)(C)O)csc12` [compound 352], the IC50 is above 1000 nM under setting [2] and 1270 nM under setting [3].
As to `Cc1nc2cnc(C3CC3)c(C#N)c2c(=O)n1CCOc1ccc(Cl)cc1-c1ccc(Cl)c2c(C(=O)O)csc12` [compound 773], the IC50 reads like this: under setting [2], below 50 nM; under setting [3], 10.2 nM.
As to `Cc1nc2cc(C#N)cc(C#N)c2c(=O)n1C/C=C/c1ccc(Cl)cc1-c1ccnc2c(C(=O)O)csc12` [compound 286], the IC50 is 50 to 1000 nM under setting [2] and 183 nM under setting [3].
Turning to `Cc1nc2cnc(C3CN(C)CCO3)c(C#N)c2c(=O)n1CCOc1ccc(Cl)cc1-c1ccnc2c(C(=O)O)csc12` (stereo not shown) [compound 1330], under setting [1], the IC50 is 13 nM.
For `Cc1cc(-c2cc(Cl)ccc2OCCn2c(C)nc3cc(CF)c(C)c(C#N)c3c2=O)c2scc(C(=O)O)c2n1` [compound 724], the IC50 by setting is: under setting [2], below 50 nM; under setting [3], 37.7 nM.
For `Cc1nc2cnc(N3CCN(CC4CC4)CC3)c(C#N)c2c(=O)n1CC#Cc1ccc(Cl)cc1-c1ccnc2c(C(=O)O)csc12` [compound 895] the same measures were below 50 nM and 22.9 nM.
On to `CN1c2cc(C(F)(F)F)cc(C#N)c2C(=O)N(CCOc2ccc(Cl)cc2-c2ccnc3c(C(=O)O)csc23)C1(C)C` [compound 355], for which the IC50 is 50 to 1000 nM under setting [2] and 146 nM under setting [3].
Consider `Cc1cc(-c2cc(Cl)ccc2OCCn2c(C)nc3cnc(-c4ccc(Cl)cc4)c(C#N)c3c2=O)c2scc(C(=O)O)c2n1` [compound 949], for which the IC50 by setting is: under setting [2], below 50 nM; under setting [3], 37.3 nM.
Take `CCc1nc(C)c2nc(C)n(CCOc3ccc(Cl)cc3-c3ccnc4c(C(=O)O)csc34)c(=O)c2c1C#N` [compound 851]: the IC50 is below 50 nM under setting [2] and 6.02 nM under setting [3].
Turning to `Cc1nc2cnc(N3CCN(C4(CC(F)F)CC4)CC3)c(C#N)c2c(=O)n1CCOc1ccc(Cl)cc1-c1ccnc2c(C(=O)O)csc12` [compound 1643], under setting [1], the IC50 was 18.8 nM.
For the molecule `Cc1cc(-c2cc(Cl)ccc2OCCn2c(C)nc3cc4c(c(C#N)c3c2=O)CCNC4)c2scc(C(=O)O)c2n1` [compound 334], the IC50 is below 50 nM under setting [2] and 10.4 nM under setting [3].
For the molecule `Cc1nc2cnc(C3=CCN(C)CC3)c(C#N)c2c(=O)n1CCOc1ccc(Cl)cc1-c1ccnc2c(C(=O)O)csc12` [compound 888], the IC50 was below 50 nM under setting [2] and 40.2 nM under setting [3].
As for `Cc1nc2c(F)cc(C(F)F)c(C#N)c2c(=O)n1CCOc1ccc(Cl)cc1-c1ccnc2c(-c3nnn[nH]3)csc12` [compound 302], the IC50 runs as follows: under setting [2], 50 to 1000 nM; under setting [3], 77.6 nM.
On the same counts, the results for `Cc1nc2cc(C(F)(F)F)c(N3CCN(C)CC3)c(C#N)c2c(=O)n1CCOc1ccc(Cl)cc1-c1ccnc2c(C(=O)O)csc12` [compound 834] are below 50 nM and 31.6 nM.
Consider `COC(=O)c1csc2c(-c3cc(Cl)ccc3OCCn3c(C)nc4cc(C(F)(F)F)c(Cl)c(C#N)c4c3=O)ccnc12` [compound 1905], for which the IC50 under setting [1] was 881 nM.
Regarding `Cc1cc(-c2cc(Cl)ccc2OCCn2c(C)nc3cc(C(F)(F)F)c(OCc4ccccn4)c(C#N)c3c2=O)c2scc(C(=O)O)c2n1` [compound 1033], the IC50 is below 50 nM under setting [2] and 20 nM under setting [3].
As to `Cc1nc2cnc(N(C)C3CCN([C@H]4C[C@@H](OC(F)(F)F)C4)CC3)c(C#N)c2c(=O)n1CC#Cc1ccc(Cl)cc1-c1ccnc2c(C(=O)NS(=O)(=O)C3COC3)csc12` [compound 1610], the IC50 under setting [1] was 6.02 nM.
For the molecule `Cc1nc2cnc(N(C)[C@H]3CC[C@H](N(C)CC(F)F)CC3)c(C#N)c2c(=O)n1CC#Cc1ccc(Cl)cc1-c1ccnc2c(C(=O)O)csc12` [compound 1895], the IC50 under setting [1] was 12.7 nM.
Turning to `Cc1cc(-c2cc(Cl)ccc2OCCn2c(C)nc3ccc(C(F)(F)CN(C)C)c(C#N)c3c2=O)c2scc(C(=O)O)c2n1` [compound 529], the IC50 was below 50 nM under setting [2] and 5.78 nM under setting [3].
Turning to `Cc1nc2c(C(F)(F)F)ncc(C#N)c2c(=O)n1CCOc1ccc(Cl)cc1-c1cccc(C(=O)O)c1` [compound 38], the IC50 is 50 to 1000 nM under setting [2] and 55.5 nM under setting [3].
On to `Cc1cc(-c2cc(Cl)ccc2OCCn2c(C)nc3c(C)ncc(C#N)c3c2=O)c2scc(C(O)(O)C(F)(F)F)c2n1` [compound 732], for which the IC50 runs as follows: under setting [2], 50 to 1000 nM; under setting [3], 874 nM.
For the molecule `Cc1cc(-c2cc(Cl)ccc2OCCn2c(C)nc3c(C(F)(F)F)ncc(C#N)c3c2=O)c2scc(C(=O)O)c2n1` [compound 340], the IC50 by setting is: under setting [2], below 50 nM; under setting [3], 5.01 nM.
On to `CCN(c1ncc2nc(C)n(CC#Cc3ccc(Cl)cc3-c3ccnc4c(C(=O)NS(=O)(=O)c5ccncc5)csc34)c(=O)c2c1C#N)C1CCN(C2CC(F)(F)C2)CC1` [compound 1838], for which the IC50 under setting [1] is 12.3 nM.

The values are drawn from patent US11286268B1, “EIF4E-inhibiting compounds and methods” (EFFECTOR THERAPEUTICS, INC., priority 2019, dated 2022).
